The target in one assay is T1, GPR40 (Homo sapiens, UniProt O14842).
T1 construct: expressed in transfected cells; host or cells: CHO-K1
T1 sequence (O14842 whole entry): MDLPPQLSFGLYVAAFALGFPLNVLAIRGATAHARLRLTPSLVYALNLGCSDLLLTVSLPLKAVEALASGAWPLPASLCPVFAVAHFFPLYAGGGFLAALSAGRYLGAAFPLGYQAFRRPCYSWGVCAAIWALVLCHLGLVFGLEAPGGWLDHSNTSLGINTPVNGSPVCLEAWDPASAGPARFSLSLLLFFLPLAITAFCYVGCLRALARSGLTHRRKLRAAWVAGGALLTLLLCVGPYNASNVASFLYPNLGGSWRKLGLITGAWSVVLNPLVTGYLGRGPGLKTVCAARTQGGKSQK
In words: GPR40 agonist activity, FLIPR calcium assay in CHO-K1/GPR40 cells. In kind it is cell-based. The conditions noted are these: GPR40 agonist activity range (EC50), CHO-K1/GPR40 cells; read-out: GPR40 activity. As to the method: Inoculate CHO-K1/GPR40 cells in 384-well plates at a density of 10,000 cells/well. Cells were incubated at 37° C. for 24 hours in a 5% CO2 incubator. After the experiment, discard the cell culture medium, quickly add […] of 1× FLIPR® Calcium 6 dye containing 2.5 mM/Probenecid to each well and incubate at 37° C. for 2 hours protected from light. For the determination, different concentrations of drug ([…]) were added to the wells and the fluorescence values were read. The fluorescence excitation wavelength was 494 nm and emission wavelength was 516 nm. FLIPR instrument data, EC50 was derived from the formula Y=Bottom+(Top−Bottom)/(1+(EC50/X)^HillSlope).
Take `O=C(O)CC1COc2cc(OCc3cccc4c3OCO4)ccc21` (stereo not shown) [IIb-01]: the EC50 is over 100 nM.
On the same count and under the same terms, in the case of `O=C(O)CC1COc2cc(OCc3cc(Br)cc4c3OCO4)ccc21` (stereo not shown) [IIb-02] it was over 100 nM.
The same measure, in the same setting: under `O=C(O)CC1COc2cc(OCc3c(Br)ccc4c3OCO4)ccc21` (stereo not shown) [IIb-03] stands over 100 nM; under `O=C(O)CC1COc2cc(OCc3ccc4c(c3)OCO4)ccc21` (stereo not shown) [IIb-04], 10 to 100 nM.
On the same count and under the same terms, in the case of `O=C(O)CC1COc2cc(OCc3cc(Cl)cc4c3OCO4)ccc21` (stereo not shown) [IIb-05] it was 10 to 100 nM; in that of `O=C(O)CC1COc2cc(OCc3cc(F)cc4c3OCO4)ccc21` (stereo not shown) [IIb-06], 10 to 100 nM; in that of `O=C(O)C[C@@H]1COc2cc(OCc3cc(F)cc4c3OCO4)ccc21` [IIb-07], 10 to 100 nM.
Regarding `O=C(O)CC1COc2cc(OCc3c(Br)ccc4c3OCCO4)ccc21` (stereo not shown) [IIb-08], the EC50 is over 100 nM.
Turning to `O=C(O)CC1COc2cc(OCc3cc(Br)cc4c3OCCO4)ccc21` (stereo not shown) [IIb-09], the EC50 was over 100 nM.
Regarding `O=C(O)CC1COc2cc(OCc3cc(Cl)cc4c3OCCO4)ccc21` (stereo not shown) [IIb-10], the EC50 was over 100 nM.
Turning to `O=C(O)CC1COc2cc(OCc3cc(F)cc4c3OCCO4)ccc21` (stereo not shown) [IIb-11], the EC50 is over 100 nM.
In the case of `O=C(O)CC1COc2cc(OCc3ccc(F)c4c3OCO4)ccc21` (stereo not shown) [IIb-12], the EC50 was over 100 nM.
Take `O=C(O)CC1COc2cc(OCc3c(F)ccc4c3OCO4)ccc21` (stereo not shown) [IIb-13]: the EC50 was over 100 nM.
For `O=C(O)CC1COc2cc(OCc3cc(C(F)(F)F)cc4c3OCO4)ccc21` (stereo not shown) [IIb-14], the EC50 is 10 to 100 nM.
Still for that read-out and setting: in the case of `N#Cc1cc(COc2ccc3c(c2)OCC3CC(=O)O)c2c(c1)OCO2` (stereo not shown) [IIb-15] it was 10 to 100 nM; in that of `O=C(O)CC1COc2cc(OCc3ccc(Br)c4c3OCO4)ccc21` (stereo not shown) [IIb-16], over 100 nM; in that of `O=C(O)CC1COc2cc(OCc3cccc4c3OC(F)(F)O4)ccc21` (stereo not shown) [IIb-17], 10 to 100 nM.
For the molecule `O=C(O)CC1COc2cc(OCc3cccc4c3OCCO4)ccc21` (stereo not shown) [IIb-19], the EC50 is over 100 nM.
With `CC1(C)Oc2cccc(COc3ccc4c(c3)OCC4CC(=O)O)c2O1` (stereo not shown) [IIb-20], the EC50 lay within 10 to 100 nM.
With `O=C(O)CC1COc2cc(OCc3cc(Br)cc4c3OC(F)(F)O4)ccc21` (stereo not shown) [IIb-21], the EC50 is 10 to 100 nM.
Take `CC1(C)Oc2cc(Br)cc(COc3ccc4c(c3)OCC4CC(=O)O)c2O1` (stereo not shown) [IIb-22]: the EC50 is over 100 nM.
On to `O=C(O)CC1COc2cc(OCc3cc(Cl)cc4c3OC(F)(F)O4)ccc21` (stereo not shown) [IIb-23], for which the EC50 was 10 to 100 nM.
As to `O=C(O)CC1COc2cc(OCc3ccc(Cl)c4c3OC(F)(F)O4)ccc21` (stereo not shown) [IIb-24], the EC50 was over 100 nM.
As to `O=C(O)CC1COc2cc(OCc3cccc4c3OC(F)(F)O4)c(Br)cc21` (stereo not shown) [IIb-26], the EC50 was over 100 nM.
On to `O=C(O)CC1COc2c1cc(Br)c(OCc1cccc3c1OC(F)(F)O3)c2Br` (stereo not shown) [IIb-27], for which the EC50 is over 100 nM.
For `O=C(O)CC1COc2cc(OCc3cccc4c3OC(F)(F)O4)c(Cl)cc21` (stereo not shown) [IIb-28], the EC50 was over 100 nM.
Take `O=C(O)CC1COc2cc(OCc3cccc4c3OC(F)(F)O4)c(F)cc21` (stereo not shown) [IIb-29]: the EC50 is over 100 nM.
As to `O=C(O)C(Br)C1COc2cc(OCc3cccc4c3OC(F)(F)O4)ccc21` (stereo not shown) [IIb-30], the EC50 is over 100 nM.
Take `NC(C(=O)O)C1COc2cc(OCc3cccc4c3OC(F)(F)O4)ccc21` (stereo not shown) [IIb-31]: the EC50 is over 100 nM.
On to `O=C(O)C(O)C1COc2cc(OCc3cccc4c3OC(F)(F)O4)ccc21` (stereo not shown) [IIb-32], for which the EC50 is over 100 nM.
For the molecule `O=C(O)C(F)C1COc2cc(OCc3cccc4c3OC(F)(F)O4)ccc21` (stereo not shown) [IIb-33], the EC50 lay within 10 to 100 nM.
For the molecule `O=C(O)C(F)(F)C1COc2cc(OCc3cccc4c3OC(F)(F)O4)ccc21` (stereo not shown) [IIb-34], the EC50 was over 100 nM.
For the molecule `O=C(O)CC1CCc2cc(OCc3cc(F)cc4c3OCO4)ccc21` (stereo not shown) [IIb-35], the EC50 is 10 to 100 nM.
In the case of `CC(C)(CC(=O)O)c1ccc(OCc2cc(F)cc3c2OCO3)cc1` [IIb-36], the EC50 was over 100 nM.
Consider `O=C(O)CC1(c2ccc(OCc3cc(F)cc4c3OCO4)cc2)OCCO1` [IIb-37], for which the EC50 was over 100 nM.
On to `Cc1cc(OCCCS(C)(=O)=O)cc(C)c1-c1cc(COc2ccc3c(c2)OC[C@H]3CC(=O)O)c2c(c1)OCO2` [IIb-38], for which the EC50 lay within 10 to 100 nM.
Turning to `O=C(O)C(F)(F)C1COc2cc(OCc3cc(Cl)cc4c3OCO4)ccc21` (stereo not shown) [IIb-39], the EC50 was over 100 nM.
For `O=C(O)C[C@@H]1COc2cc(OCc3cc(I)cc4c3OCO4)ccc21` [IIb-40], the EC50 fell in the range of 10 to 100 nM.
Consider `CN(C)c1cc(COc2ccc3c(c2)OC[C@H]3CC(=O)O)c2c(c1)OCO2` [IIb-41], for which the EC50 was over 100 nM.
For `CN(C)c1ccc2c(c1COc1ccc3c(c1)OC[C@H]3CC(=O)O)OCO2` [IIb-42], the EC50 was over 100 nM.
In the case of `Nc1cc(COc2ccc3c(c2)OC[C@H]3CC(=O)O)c2c(c1)OCO2` [IIb-44], the EC50 is over 100 nM.
The same measure, in the same setting: in the case of `COc1cc(COc2ccc3c(c2)OC[C@H]3CC(=O)O)c2c(c1)OCO2` [IIb-45] it was over 100 nM.
With `CC(C)(C)OC(=O)Nc1cc(COc2ccc3c(c2)OC[C@H]3CC(=O)O)c2c(c1)OC(F)(F)O2` [IIb-46], the EC50 was under 10 nM.
Take `COC(=O)Nc1cc(COc2ccc3c(c2)OC[C@H]3CC(=O)O)c2c(c1)OCO2` [IIb-47]: the EC50 was over 100 nM.
As for `O=C(O)C[C@@H]1COc2cc(OCc3cc(NC(=O)OC4CCCC4)cc4c3OCO4)ccc21` [IIb-48], the EC50 lay in the range of 10 to 100 nM.
Same read-out and setting: in the case of `CC(C)(C)NC(=O)Nc1cc(COc2ccc3c(c2)OC[C@H]3CC(=O)O)c2c(c1)OCO2` [IIb-49] it was over 100 nM; in that of `CC(C)(C)C(=O)Nc1cc(COc2ccc3c(c2)OC[C@H]3CC(=O)O)c2c(c1)OCO2` [IIb-50], over 100 nM; in that of `CC(C)S(=O)(=O)Nc1cc(COc2ccc3c(c2)OC[C@H]3CC(=O)O)c2c(c1)OCO2` [IIb-51], over 100 nM.
As for `O=C(O)C[C@@H]1COc2cc(OCc3cc(OC(F)(F)F)cc4c3OCO4)ccc21` [IIb-52], the EC50 was over 100 nM.
In the case of `O=C(O)C[C@@H]1COc2cc(OCc3cc(C(F)(F)F)cc4c3OCO4)ccc21` [IIb-53], the EC50 was 10 to 100 nM.
For `O=C(O)C[C@@H]1COc2cc(OCc3cc(C(F)(F)F)cc4c3OC(F)(F)O4)ccc21` [IIb-54], the EC50 was in the range of 10 to 100 nM.
Turning to `O=C(O)C[C@@H]1COc2cc(OCc3cc(F)cc4c3OC(F)(F)O4)ccc21` [IIb-55], the EC50 lay in the range of 10 to 100 nM.
As for `O=C(O)C[C@@H]1COc2cc(OCc3cc(Cl)cc4c3OC(F)(F)O4)ccc21` [IIb-56], the EC50 was 10 to 100 nM.
On to `O=C(O)C(F)C1COc2cc(OCc3cc(F)cc4c3OCO4)ccc21` (stereo not shown) [IIb-57], for which the EC50 lay in the range of 10 to 100 nM.
Still for that read-out and setting: under `O=C(O)C(F)C1COc2cc(OCc3cc(Cl)cc4c3OCO4)ccc21` (stereo not shown) [IIb-58] stands 10 to 100 nM.
Take `CC(C)(C)OC(=O)Nc1cc(COc2ccc3c(c2)OCC3C(F)C(=O)O)c2c(c1)OCO2` (stereo not shown) [IIb-59]: the EC50 lay in the range of 10 to 100 nM.
Regarding `O=C(O)CC1CCc2cc(OCc3cccc4c3OC(F)(F)O4)ccc21` (stereo not shown) [IIb-61], the EC50 was 10 to 100 nM.
`CC#CC(CC(=O)O)c1ccc(OCc2cccc3c2OC(F)(F)O3)cc1` (stereo not shown) [IIb-62]: the EC50 lay within 10 to 100 nM.
With `CC(C)(C)OC(=O)Nc1cc(COc2ccc3c(c2)CCC3CC(=O)O)c2c(c1)OC(F)(F)O2` (stereo not shown) [IIb-63], the EC50 was 10 to 100 nM.
In the case of `CC#CC(CC(=O)O)c1ccc(OCc2cc(NC(=O)OC(C)(C)C)cc3c2OC(F)(F)O3)cc1` (stereo not shown) [IIb-64], the EC50 lay within 10 to 100 nM.

The same assay, now with this note: read-out: GPR40 activity (EC50).
Regarding `CC(C)(C)OC(=O)Nc1cc(COc2ccc3c(c2)OC[C@H]3CC(=O)O)c2c(c1)OC(F)(F)O2` [IIb-46], the EC50 is under 10 nM.

The record behind these values is US20230339919A1, “BENZO OXYGEN-CONTAINING HETEROCYCLIC COMPOUNDS AND MEDICAL APPLICATION THEREOF” (AB PHARMA LTD., priority 2020, published 2023).
